# Measurements: patent US6593303B1, “Anti-tumor synergetic composition” (Pharmacia & Upjohn, S.p.A., priority 1999, dated 2003)
# Columns and labels:
# [1] = test system: A549 human lung carcinoma; assay: Antitumor activity on s.c. implanted A549 human lung carcinoma
# [2] = test system: disseminated L1210 murine leukemia; assay: Antileukemic activity against disseminated L1210 murine leukemia (cells injected iv)
# MX1 mammary carcinoma = assay: Antitumor activity on s.c. injected MX1 mammary carcinoma; type: in vivo, mice
# [3] = test system: H207 human ovarian carcinoma; assay: Antitumor activity on s.c. implanted H207 human ovarian carcinoma
# [4] = Table 2, CisPlatin alone 3 mg/kg/day iv q4dx2
# [5] = Table 2, Ia alone 1.5 mg/kg/day iv q4dx3
# [6] = Table 3, Ia alone 2 mg/kg/day iv +7,11,15
# [7] = Ia alone 1 mg/kg/day iv day +1,2
# [8] = Ia alone 0.5 mg/kg/day iv 8,12,16
# [9] = Ia alone 1 mg/kg/day iv 8,12,16
# [10] = Ia alone 1.5 mg/kg/day iv q4dx3
# [11] = Table 3, Paclitaxel alone 22 mg/kg/day iv +9,13,17
# [12] = Table 3, Paclitaxel alone 33 mg/kg/day iv +9,13,17
# [13] = Paclitaxel alone 22 mg/kg/day iv q4dx3
# [14] = Paclitaxel alone 33 mg/kg/day iv q4dx3
# [15] = Taxotere alone 5 mg/kg/day iv 10,14,18
# [16] = Taxotere alone 10 mg/kg/day iv 10,14,18
compound,measurement,setting,value
N.N.[Cl][Pt][Cl] [CisPlatin],N° of Tumor-Free Survivors,[1]; [4],0/9
same,"T-C N° of days (tumor growth delay, 1 g)",[1]; [4],0 days
same,T.I. % (tumor inhibition),[1]; [4],16%
same,Body weight Reduction % (day),"[1]; Table 2, CisPlatin alone 3 mg/kg/day iv q4dx2, day 18",2(18) %
"CC(=O)[C@]1(O)Cc2c(O)c3c(c(O)c2[C@@H](OC2CC(N4CC4)C(OS(C)(=O)=O)C(C)O2)C1)C(=O)c1ccccc1C3=O (some centres unmarked) [Ia, 4-demethoxy-3′-deamino-3′-aziridinyl-4′-methansulfonyl daunorubicin]",N° of Tumor-Free Survivors,[1]; [5],0/9
same,"T-C N° of days (tumor growth delay, 1 g)",[1]; [5],5 days
same,T.I. % (tumor inhibition),[1]; [5],48%
same,Tox (number of toxic deaths/number of mice),[1]; [5],0/9
same,Body weight Reduction % (day),"[1]; Table 2, Ia alone 1.5 mg/kg/day iv q4dx3, day 14",9(14) %
same,N° of Tumor-Free Survivors,[1]; [6],0/8
same,"T-C N° of days (tumor growth delay, 1 g)",[1]; [6],9 days
same,T.I. % (tumor inhibition),[1]; [6],69%
same,Tox (number of toxic deaths/number of mice),[1]; [6],0/8
same,Body weight Reduction % (day),"[1]; Table 3, Ia alone 2 mg/kg/day iv +7,11,15, day 13",11%
same,ILS % (increase in life span),[2]; [7],83%
same,Tox (number of toxic deaths/number of mice),[2]; [7],0/10
same,Body weight Reduction % (day),MX1 mammary carcinoma; [8],0%
same,N° of Tumor-Free Survivors,MX1 mammary carcinoma; [8],0/8
same,T.I. % (tumor inhibition),MX1 mammary carcinoma; [8],46%
same,TGD (lg) days (tumor growth delay treated - control),MX1 mammary carcinoma; [8],1 days
same,Tox (number of toxic deaths/number of mice),MX1 mammary carcinoma; [8],0/8
same,N° of Tumor-Free Survivors,MX1 mammary carcinoma; [9],1/7
same,T.I. % (tumor inhibition),MX1 mammary carcinoma; [9],94%
same,TGD (lg) days (tumor growth delay treated - control),MX1 mammary carcinoma; [9],2 days
same,Tox (number of toxic deaths/number of mice),MX1 mammary carcinoma; [9],0/7
same,Body weight Reduction % (day),"MX1 mammary carcinoma; Ia alone 1 mg/kg/day iv 8,12,16, day 17",5%
same,N° of Tumor-Free Survivors,[3]; [10],0/7
same,"T-C N° of days (tumor growth delay, 1 g)",[3]; [10],47 days
same,T.I. % (tumor inhibition),[3]; [10],100%
same,Tox (number of toxic deaths/number of mice),[3]; [10],0/7
same,Body weight Reduction % (day),"[3]; Ia alone 1.5 mg/kg/day iv q4dx3, day 15",7%
"O=C1[O][Pt]2([NH][C@@H]3CCCC[C@H]3[NH]2)[O]C1=O [Oxaliplatinum, Oxaliplatin]",ILS % (increase in life span),[2]; Oxaliplatinum alone 8 mg/kg/day ip day +3,83%
CC(=O)O[C@H]1C(=O)[C@@]2(C)[C@H]([C@H](OC(=O)c3ccccc3)[C@]3(O)C[C@H](OC(=O)[C@H](O)[C@@H](NC(=O)c4ccccc4)c4ccccc4)C(C)=C1C3(C)C)[C@]1(OC(C)=O)CO[C@@H]1C[C@@H]2O [Paclitaxel],Body weight Reduction % (day),[1]; [11],0%
same,N° of Tumor-Free Survivors,[1]; [11],0/8
same,"T-C N° of days (tumor growth delay, 1 g)",[1]; [11],27 days
same,T.I. % (tumor inhibition),[1]; [11],90%
same,Tox (number of toxic deaths/number of mice),[1]; [11],0/8
same,Body weight Reduction % (day),[1]; [12],0%
same,N° of Tumor-Free Survivors,[1]; [12],0/8
same,"T-C N° of days (tumor growth delay, 1 g)",[1]; [12],29 days
same,T.I. % (tumor inhibition),[1]; [12],93%
same,Tox (number of toxic deaths/number of mice),[1]; [12],0/8
same,Body weight Reduction % (day),[3]; [13],0%
same,N° of Tumor-Free Survivors,[3]; [13],0/7
same,"T-C N° of days (tumor growth delay, 1 g)",[3]; [13],9 days
same,T.I. % (tumor inhibition),[3]; [13],80%
same,Tox (number of toxic deaths/number of mice),[3]; [13],0/7
same,N° of Tumor-Free Survivors,[3]; [14],0/7
same,"T-C N° of days (tumor growth delay, 1 g)",[3]; [14],12 days
same,T.I. % (tumor inhibition),[3]; [14],86%
same,Tox (number of toxic deaths/number of mice),[3]; [14],0/7
same,Body weight Reduction % (day),"[3]; Paclitaxel alone 33 mg/kg/day iv q4dx3, day 13",3%
"CC(=O)O[C@@]12CO[C@@H]1C[C@H](O)[C@@]1(C)C(=O)[C@H](O)C3=C(C)[C@@H](OC(=O)[C@H](O)[C@@H](NC(=O)OC(C)(C)C)c4ccccc4)C[C@@](O)([C@@H](OC(=O)c4ccccc4)[C@H]21)C3(C)C [Taxotere, Docetaxel]",Body weight Reduction % (day),MX1 mammary carcinoma; [15],0%
same,N° of Tumor-Free Survivors,MX1 mammary carcinoma; [15],0/8
same,T.I. % (tumor inhibition),MX1 mammary carcinoma; [15],60%
same,TGD (lg) days (tumor growth delay treated - control),MX1 mammary carcinoma; [15],1 days
same,Tox (number of toxic deaths/number of mice),MX1 mammary carcinoma; [15],0/8
same,N° of Tumor-Free Survivors,MX1 mammary carcinoma; [16],2/8
same,T.I. % (tumor inhibition),MX1 mammary carcinoma; [16],99%
same,TGD (lg) days (tumor growth delay treated - control),MX1 mammary carcinoma; [16],42 days
same,Tox (number of toxic deaths/number of mice),MX1 mammary carcinoma; [16],0/8
same,Body weight Reduction % (day),"MX1 mammary carcinoma; Taxotere alone 10 mg/kg/day iv 10,14,18, day 25",8%
